Converted amounts (≈) assume the structure as drawn. Read-outs that look alike come from different tables or passages of the source.
How the values were obtained:
Type in all cases: cell-based
[1] = system: Gram negative anaerobic pathogens and facultative anaerobic pathogens; assay: MIC by agar dilution, Brucella HK agar with 5% laked sheep blood, anaerobic reference strains; settings: read-out: MIC
Hafnia alvei = assay: MIC by agar dilution (NCCLS M7-A4), 288 enteropathogenic isolates, eight quinolones; settings: Hafnia alvei (n = 32)
Klebsiella oxytoca = assay: MIC by NCCLS broth microdilution, 1100 Japanese clinical isolates 1997-1998; settings: Klebsiella oxytoca (n=40)
Enterobacter aerogenes = assay: as above; settings: Enterobacter aerogenes (n=35)
Klebsiella pneumoniae [2] = assay: MIC by NCCLS reference broth microdilution, 450 respiratory tract pathogens; settings: for MIC50 / MIC90: Klebsiella pneumoniae
Klebsiella pneumoniae [3] = assay: MIC by NCCLS broth microdilution, 1100 Japanese clinical isolates 1997-1998; settings: Klebsiella pneumoniae (n=35)
Enterococcus gallinarum = assay: as above
Salmonella spp. = assay: MIC by agar dilution (NCCLS M7-A4), 288 enteropathogenic isolates, eight quinolones; settings: for MIC: ciprofloxacin MIC ≥[…], read-out: MIC
Enterococcus faecium = assay: MIC by NCCLS broth microdilution, 1100 Japanese clinical isolates 1997-1998; settings: for MIC: Enterococcus faecium
Streptococcus pyogenes = assay: as above; settings: Streptococcus pyogenes (n=51)
Enterobacter cloacae = assay: as above; settings: Enterobacter cloacae (n=40)
Staphylococcus aureus = assay: MIC by agar dilution (NCCLS), 411 isolates Buenos Aires 1998-99; settings: for MIC90: Staphylococcus aureus
[4] = system: Streptococcus pneumoniae and Haemophilus influenzae; assay: MIC by broth microdilution (NCCLS), all isolates pooled
Yersinia enterocolitica = assay: MIC by agar dilution (NCCLS M7-A4), 288 enteropathogenic isolates, eight quinolones; settings: Yersinia enterocolitica (n = 22)
[5] = extended spectrum β-lactamase negative (n = 30)
[6] = extended spectrum β-lactamase positive (n = 20)
[7] = S. aureus, Methicillin resistant (n = 14)
[8] = S. aureus, Methicillin susceptible (n = 66)

For `CO/N=C1\CN(c2nc3c(cc2F)c(=O)c(C(=O)O)cn3C2CC2)CC1CN` (racemic) [Gemifloxacin, (R,S)-7-(3-aminomethyl-4-methoxyiminopyrrolidin-1-yl)-1-cyclopropyl-6-fluoro-4-oxo-1,4-dihydro-1,8-naphthyridine-3-carboxylic acid], the MIC ([1]; Prevotella melaninogenica, Prevotella melaninogenica GAI5490) was 1 µg/mL (≈ 2.57 µM), the MIC ([1]; Segatella oris, ATCC33573, Prevotella oris ATCC33573) was 0.5 µg/mL (≈ 1.28 µM) and the MIC ([1]; Sutterella wadsworthensis, ATCC51579, Sutterella wadsworthensis ATCC51579) was 2 µg/mL (≈ 5.14 µM). The MIC ([1]; Veillonella dispar, ATCC17748, Veillonella dispar ATCC17748) was ≤ 0.03 µg/mL, the MIC ([1]; Veillonella parvula, ATCC10790, Veillonella parvula ATCC10790) was 0.06 µg/mL (≈ 0.154 µM) and the “% Susceptible” value (Hafnia alvei) was 100%. For the same compound, the MIC50 (Hafnia alvei) was 0.03 µg/mL (≈ 0.077 µM), the MIC90 (Hafnia alvei) was 0.03 µg/mL (≈ 0.077 µM) and the “MIC Range” value (Hafnia alvei) was ≤0.015 to 0.06 µg/mL. For the same compound, the MIC50 (Klebsiella oxytoca) was 0.032 µg/mL (≈ 0.0822 µM), the MIC90 (Klebsiella oxytoca) was 4 µg/mL (≈ 10.3 µM) and the “MIC Range” value (Klebsiella oxytoca) was ≤0.008 to 32 µg/mL. For the same compound, the “MIC Range” value (Enterobacter aerogenes) was 0.016 to 0.25 µg/mL, the MIC50 (Enterobacter aerogenes; Klebsiella aerogenes) was 0.032 µg/mL (≈ 0.0822 µM) and the MIC90 (Enterobacter aerogenes; Klebsiella aerogenes) was 0.063 µg/mL (≈ 0.162 µM). For the same compound, the “MIC Range” value (Klebsiella pneumoniae [2]; Klebsiella pneumoniae (n = 50)) was ≤0.0075 to 1 µg/mL, the MIC50 (Klebsiella pneumoniae [2]; Klebsiella pneumoniae (n = 50)) was 0.03 µg/mL (≈ 0.077 µM) and the MIC90 (Klebsiella pneumoniae [2]; Klebsiella pneumoniae (n = 50)) was 0.25 µg/mL (≈ 0.642 µM). It also gave an MIC50 (Klebsiella pneumoniae [2]; [5]) of 0.015 µg/mL (≈ 0.0385 µM), an MIC90 (Klebsiella pneumoniae [2]; [5]) of 0.06 µg/mL (≈ 0.154 µM) and an MIC50 (Klebsiella pneumoniae [2]; [6]) of 0.25 µg/mL (≈ 0.642 µM). For the same compound, the MIC90 (Klebsiella pneumoniae [2]; [6]) was 0.5 µg/mL (≈ 1.28 µM), the “MIC Range” value (Klebsiella pneumoniae [2]; [5]) was ≤0.0075 to 0.12 µg/mL and the “MIC Range” value (Klebsiella pneumoniae [2]; [6]) was 0.03 to 1 µg/mL. For the same compound, the MIC50 (Klebsiella pneumoniae [3]) was 0.032 µg/mL (≈ 0.0822 µM), the “MIC Range” value (Klebsiella pneumoniae [3]) was 0.016 to 1 µg/mL and the MIC90 (Klebsiella pneumoniae [3]; read-out: MIC90) was 0.063 µg/mL (≈ 0.162 µM). It also gave an MIC (Enterococcus gallinarum; Enterococcus gallinarum (vanC1), strain TMS3) of 0.125 µg/mL (≈ 0.321 µM), an MIC (Enterococcus gallinarum; Enterococcus gallinarum, GALLINARUM) of 0.125 µg/mL (≈ 0.321 µM) and an MIC (Enterococcus gallinarum; Enterococcus gallinarum, GALLINARUM, Enterococcus gallinarum (vanC1), strain TMS1, read-out: MIC) of 0.032 µg/mL (≈ 0.0822 µM). The MIC (Enterococcus gallinarum; Enterococcus gallinarum, GALLINARUM, Enterococcus gallinarum (vanC1), strain TMS4, read-out: MIC) was 0.032 µg/mL (≈ 0.0822 µM), the MIC (Salmonella spp.; S. hadar (n = 2)) was 0.25 µg/mL (≈ 0.642 µM) and the MIC (Salmonella spp.; S. newport (n = 1)) was 0.25 µg/mL (≈ 0.642 µM). The MIC (Salmonella spp.; S. virchow (n = 2)) was 0.12 µg/mL (≈ 0.308 µM), the “% Susceptible” value (Salmonella spp.; Salmonella spp. (n = 106)) was 100% and the MIC50 (Salmonella spp.; Salmonella spp. (n = 106)) was 0.03 µg/mL (≈ 0.077 µM). For the same compound, the MIC90 (Salmonella spp.; Salmonella spp. (n = 106)) was 0.12 µg/mL (≈ 0.308 µM), the “MIC Range” value (Salmonella spp.; Salmonella spp. (n = 106)) was ≤0.015 to 0.25 µg/mL and the MIC (Salmonella spp.; Salmonella, S. tshiongwe (n = 1)) was 0.25 µg/mL (≈ 0.642 µM). For the same compound, the “MICs lower than those of the other fluoroquinolones studied” value (Salmonella spp.; six Salmonella spp. with ciprofloxacin MICs ≥[…]) was 1-4 dilutions, the MIC50 (Enterococcus faecium; Enterococcus faecium (n=39)) was 16 µg/mL (≈ 41.1 µM) and the MIC90 (Enterococcus faecium; Enterococcus faecium (n=39)) was 64 µg/mL (≈ 164 µM). The “MIC Range” value (Enterococcus faecium; Enterococcus faecium (n=39)) was 0.063 to 64 µg/mL, the MIC (Enterococcus faecium; Enterococcus faecium (vanA) vancomycin resistant, strain TMS1) was 16 µg/mL (≈ 41.1 µM) and the MIC (Enterococcus faecium; Enterococcus faecium (vanA) vancomycin resistant, strain TMS2) was 2 µg/mL (≈ 5.14 µM). For the same compound, the MIC (Enterococcus faecium; Enterococcus faecium (vanA) vancomycin resistant, strain TMS3) was 4 µg/mL (≈ 10.3 µM), the MIC (Enterococcus faecium; Enterococcus faecium (vanA) vancomycin resistant, strain TMS4) was 4 µg/mL (≈ 10.3 µM) and the MIC (Enterococcus faecium; Enterococcus faecium (vanA) vancomycin resistant, strain TMS5) was 2 µg/mL (≈ 5.14 µM). It also gave an MIC (Enterococcus faecium; Enterococcus laecium (van B) vancomycin resistant, strain TMS6) of 32 µg/mL (≈ 82.2 µM), an MIC (Enterococcus faecium; Enterococcus laecium (van B) vancomycin resistant, strain TMS7) of 32 µg/mL (≈ 82.2 µM) and an MIC90 (Streptococcus pyogenes) of 0.063 µg/mL (≈ 0.162 µM). The “MIC Range” value (Streptococcus pyogenes) was 0.016 to 0.125 µg/mL, the MIC50 (Streptococcus pyogenes; read-out: MIC50) was 0.032 µg/mL (≈ 0.0822 µM) and the MIC50 (Enterobacter cloacae) was 0.032 µg/mL (≈ 0.0822 µM). The MIC90 (Enterobacter cloacae) was 1 µg/mL (≈ 2.57 µM), the “MIC Range” value (Enterobacter cloacae) was ≤0.008 to 2 µg/mL and the “Resistance (%)” value (Staphylococcus aureus; [7]) was 0%. The “Resistance (%)” value (Staphylococcus aureus; [8]) was 0%, the “MIC Range” value (Staphylococcus aureus; Staphylococcus aureus (n = 80)) was ≤0.004 to 2 µg/mL and the MIC90 (Staphylococcus aureus; [7]) was 2 µg/mL (≈ 5.14 µM). For the same compound, the MIC90 (Staphylococcus aureus; [8]) was 0.03 µg/mL (≈ 0.077 µM), the MIC90 (Staphylococcus aureus; Staphylococcus aureus (n = 80)) was 1 µg/mL (≈ 2.57 µM) and the “concentration at which all microorganisms were inhibited” value ([4]; 380 isolates (235 S. pneumoniae, 145 H. influenzae)) was 0.06 µg/mL. For the same compound, the “concentration at which all isolates were inhibited” value ([4]; All 602 isolates) was 0.12 µg/mL, the MIC90 ([4]; all (380) isolates tested (235 S. pneumoniae, 145 H. influenzae)) was 0.03 µg/mL (≈ 0.077 µM) and the MIC90 ([4]; all isolates tested (602)) was 0.06 µg/mL (≈ 0.154 µM). For the same compound, the “% Susceptible” value (Yersinia enterocolitica) was 100%, the MIC50 (Yersinia enterocolitica) was 0.03 µg/mL (≈ 0.077 µM) and the MIC90 (Yersinia enterocolitica) was 0.03 µg/mL (≈ 0.077 µM). For the same compound, the “MIC Range” value (Yersinia enterocolitica) was ≤0.015 to 0.12 µg/mL.
